Laboratory results as given in ChEMBL document CHEMBL5032491, “New Dibenzoquinoxalines Inhibit Triple-Negative Breast Cancer Growth by Dual Targeting of Topoisomerase 1 and the c-MYC G-Quadruplex” (J Med Chem, 2021).
Each block holds one compound with its values, some of them ahead of it. The source made the active and inactive calls. No cut-off for these calls is given here.

Legend:
MDA-MB-231 [1] = test: Antiproliferative activity against human MDA-MB-231 cells assessed as inhibition of cell growth incubated for 24 hrs by CCK8 assay; type: functional, cell-based; conditions: for IC50: MDA-MB-231, 24 h
[2] = molecular target: T1, DNA topoisomerase 1 (Homo sapiens) (UniProt P11387); test: Inhibition of human topoisomerase 1 mediated relaxation of supercoiled pHOT1 DNA at 5 to 20 uM incubated for 30 mins by agarose gel electrophoresis; conditions: dose 5-20 µM
T1 sequence (whole entry): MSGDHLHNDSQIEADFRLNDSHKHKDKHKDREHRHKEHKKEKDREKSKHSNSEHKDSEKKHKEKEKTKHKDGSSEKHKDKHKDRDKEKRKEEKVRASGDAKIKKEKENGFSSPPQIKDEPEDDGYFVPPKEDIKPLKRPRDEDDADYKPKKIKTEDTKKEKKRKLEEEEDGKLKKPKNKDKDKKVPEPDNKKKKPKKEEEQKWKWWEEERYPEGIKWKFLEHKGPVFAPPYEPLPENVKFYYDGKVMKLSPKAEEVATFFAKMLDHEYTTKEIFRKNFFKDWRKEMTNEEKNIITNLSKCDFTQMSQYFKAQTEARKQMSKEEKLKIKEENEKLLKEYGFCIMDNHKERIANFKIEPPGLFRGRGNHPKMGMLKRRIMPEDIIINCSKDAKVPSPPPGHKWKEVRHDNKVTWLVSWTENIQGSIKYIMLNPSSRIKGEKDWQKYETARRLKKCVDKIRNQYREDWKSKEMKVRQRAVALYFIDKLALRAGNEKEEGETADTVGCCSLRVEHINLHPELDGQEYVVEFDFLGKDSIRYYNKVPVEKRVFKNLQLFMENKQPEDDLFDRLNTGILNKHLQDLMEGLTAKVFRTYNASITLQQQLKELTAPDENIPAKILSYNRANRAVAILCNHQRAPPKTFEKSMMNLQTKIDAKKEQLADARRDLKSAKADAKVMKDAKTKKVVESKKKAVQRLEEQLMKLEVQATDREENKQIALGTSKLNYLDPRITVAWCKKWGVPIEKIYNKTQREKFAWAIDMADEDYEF

Quadruplex DNA [3] = test: Inhibition of c-myc G4-quadruplex DNA transcriptional activity in human MDA-MB-231 cells incubated for 24 hrs by RT-PCR analysis; type: cell-based
MDA-MB-231 [4] = test: Induction of cell cycle arrest in human MDA-MB-231 cells assessed as accumulation at sub-G1 phase at 2 uM incubated for 24 hrs by flow cytometry (reference value: 2.8%); type: functional
MDA-MB-231 [5] = test: Induction of cell cycle arrest in human MDA-MB-231 cells assessed as accumulation at G0/G1 phase at 1 uM incubated for 24 hrs by flow cytometry (reference value: 56.6%); type: functional
CA46 [6] = test: Downregulation of c-MYC transcription expression in human CA46 cells incubated for 24 hrs by RT-PCR analysis; type: functional, cell-based
MDA-MB-231 [7] = test: Induction of cell cycle arrest in human MDA-MB-231 cells assessed as accumulation at sub-G1 phase at 1 uM incubated for 24 hrs by flow cytometry (reference value: 2.8%); type: functional
MDA-MB-231 [8] = test: Inhibition of HRAS gene transcription expression in human MDA-MB-231 cells at 0.5 to 2 uM incubated for 24 hrs by RT-PCR analysis; type: functional, cell-based; conditions: dose 0.5-2 µM
MDA-MB-231 [9] = test: Induction of cell cycle arrest in human MDA-MB-231 cells assessed as accumulation at S phase at 2 uM incubated for 24 hrs by flow cytometry (reference value: 19.2%); type: functional
Quadruplex DNA [10] = test: Stabilization of c-Myc G-quadruplex DNA (unknown origin ) assessed as increase in melting temperature at 6 uM by CD spectroscopy; type: nucleic-acid assay
MDA-MB-231 [11] = test: Inhibition of BCL-2 gene transcription expression in human MDA-MB-231 cells at 0.5 to 2 uM incubated for 24 hrs by RT-PCR analysis; type: functional, cell-based; conditions: dose 0.5-2 µM
MDA-MB-231 [12] = test: Induction of cell cycle arrest in human MDA-MB-231 cells assessed as accumulation at G0/G1 phase at 0.5 uM incubated for 24 hrs by flow cytometry (reference value: 56.6%); type: functional
MDA-MB-231 [13] = test: Induction of DNA damage in human MDA-MB-231 cells assessed as increase in gammaH2AX incubated for 24 hrs by western blotting analysis; type: functional, cell-based
MDA-MB-231 [14] = test: Inhibition of cell migration in human MDA-MB-231 cells incubated for 24 hrs by wound scrape assay; type: functional, cell-based
MDA-MB-231 [15] = test: Induction of cell cycle arrest in human MDA-MB-231 cells assessed as accumulation at sub-G1 phase at 0.5 uM incubated for 24 hrs by flow cytometry (reference value: 2.8%); type: functional
MDA-MB-231 [16] = test: Antiproliferative activity against human MDA-MB-231 cells assessed as inhibition in cell growth at 2.5 uM incubated for 24 hrs by CCK8 assay; type: functional, cell-based
[17] = Antiproliferative activity against human BJ fibroplast assessed as inhibition of cell growth incubated for 24 hrs by CCK8 assay; conditions: Fibroblast
Calf thymus DNA [18] = test: Binding affinity to duplex calf thymus DNA assessed as dissociation constant by fluorescence spectroscopy; type: nucleic-acid assay, Bos taurus
MDA-MB-231 [19] = test: Inhibition of c-Myc protein expression in human MDA-MB-231 cells at 0.5 to 2 uM incubated for 24 hrs by Western blot analysis; type: functional, cell-based; conditions: dose 0.5-2 µM
MDA-MB-231 [20] = test: Antitumor activity against human MDA-MB-231 cells xenografted in BALB/c mouse assessed as tumor growth inhibition measured at 2.5 mg/kg, ip administered every other day for 20 days; type: functional; conditions: MDA-MB-231, ip, 480 h, time 20 day, read-out: TGI
MDA-MB-231 [21] = test: Induction of cell cycle arrest in human MDA-MB-231 cells assessed as accumulation at G0/G1 phase at 2 uM incubated for 24 hrs by flow cytometry (reference value: 56.6%); type: functional
MDA-MB-231 [22] = test: Induction of cell cycle arrest in human MDA-MB-231 cells assessed as accumulation at S phase at 1 uM incubated for 24 hrs by flow cytometry (reference value: 19.2%); type: functional
MDA-MB-231 [23] = test: Antitumor activity against human MDA-MB-231 cells xenografted in ip dosed BALB/c mouse assessed as tumor growth inhibition administered every other day for 20 days; type: functional, organism-based; conditions: dose 2.5-5 […], time 20.0 day
[24] = Toxicity in human MDA-MB-231 cells xenografted BALB/c mouse assessed as body weight loss at 2.5 to 5 mg/kg, ip administered every other day for 20 days; type: organism-based; conditions: in vivo, 480 h, dose 2.5-5 mg/kg, time 20 day
[25] = molecular target: T1, DNA topoisomerase 1 (Homo sapiens); test: Poison activity at human topoisomerase 1 assessed as formation of cleavage complex using pHOT-1 DNA as substrate incubated for 30 mins by agarose gel electrophoresis
MDA-MB-231 [26] = test: Inhibition of c-Myc gene transcription expression in human MDA-MB-231 cells at 0.5 to 2 uM incubated for 24 hrs by RT-PCR analysis; type: functional, cell-based; conditions: dose 0.5-2 µM
MDA-MB-231 [27] = test: Induction of cell cycle arrest in human MDA-MB-231 cells assessed as accumulation at G2/M phase at 0.5 uM incubated for 24 hrs by flow cytometry (reference value: 20.4%); type: functional
CA46 [28] = test: Downregulation of EXON 1 transcription in human CA46 cells incubated for 24 hrs by RT-PCR analysis; type: functional, cell-based
CA46 [29] = test: Downregulation of EXON 2 transcription in human CA46 cells incubated for 24 hrs by RT-PCR analysis; type: functional, cell-based
MDA-MB-231 [30] = test: Induction of cell cycle arrest in human MDA-MB-231 cells assessed as accumulation at G2/M phase at 2 uM incubated for 24 hrs by flow cytometry (reference value: 20.4%); type: functional
MDA-MB-231 [31] = test: Induction of cell cycle arrest in human MDA-MB-231 cells assessed as accumulation at G2/M phase at 1 uM incubated for 24 hrs by flow cytometry (reference value: 20.4%); type: functional
Calf thymus DNA [32] = test: Binding affinity to duplex calf thymus DNA assessed as dissociation constant; type: nucleic-acid assay, Bos taurus
[33] = molecular target: T1, DNA topoisomerase 1 (Homo sapiens); test: Inhibition of human topoisomerase 1 assessed as DNA intercalation at 1.2 to 10 uM using relaxed pHOT-1 DNA as substrate preincubated with DNA for 10 mins followed by enzyme addition and measured after 30 mins by agarose gel electrophoresis; conditions: dose 1.2-10 µM, time 40.0 min
MDA-MB-231 [34] = test: Inhibition of VEGF gene transcription expression in human MDA-MB-231 cells at 0.5 to 2 uM incubated for 24 hrs by RT-PCR analysis; type: functional, cell-based; conditions: dose 0.5-2 µM
Quadruplex DNA [35] = test: Binding affinity to c-myc G4-quadruplex DNA (unknown origin) by UV-Vis spectrophotometric method; type: nucleic-acid assay
Quadruplex DNA [36] = test: Binding affinity to c-myc G4-quadruplex DNA (unknown origin) at 1 uM in presence of ct-DNA by fluorescence spectroscopy; type: nucleic-acid assay
MDA-MB-231 [37] = test: Induction of cell cycle arrest in human MDA-MB-231 cells assessed as accumulation at S phase at 0.5 uM incubated for 24 hrs by flow cytometry (reference value: 19.2%); type: functional
MDA-MB-231 [38] = test: Antitumor activity against human MDA-MB-231 cells xenografted in BALB/c mouse assessed as tumor growth inhibition measured at 5 mg/kg, IP administered every other day for 20 days; type: functional; conditions: MDA-MB-231, ip, 480 h, time 20 day, read-out: TGI
Quadruplex DNA [39] = test: Binding affinity to c-myc G4-quadruplex DNA (unknown origin) assessed as dissociation constant by fluorescence spectroscopy; type: nucleic-acid assay
Quadruplex DNA [40] = test: Binding affinity to c-myc G4-quadruplex DNA Pu22 (unknown origin) by NMR spectroscopy; type: nucleic-acid assay
MDA-MB-231 [41] = test: Anticlonogenic activity against human MDA-MB-231 cells assessed as inhibition of colony formation incubated for 7 days by crystal violet staining based assay; type: functional, cell-based; conditions: time 7.0 day

SMILES: CN1CCN(c2ccc3c(c2)c2cc(N4CCN(C)CC4)ccc2c2nc4cc(F)c(F)cc4nc32)CC1
IC50 (MDA-MB-231 [1]): 2100 nM
inhibition [2]: Active

SMILES: CC1CCN(c2cc3nc4c5ccc(N6CCN(C)CC6)cc5c5cc(N6CCN(C)CC6)ccc5c4nc3cc2F)CC1
IC50 (MDA-MB-231 [1]): 9800 nM
inhibition [2]: inactive
inhibition (Quadruplex DNA [3]): inactive

SMILES: CN1CCN(c2ccc3c(c2)c2cc(N4CCN(C)CC4)ccc2c2nc4ccccc4nc32)CC1
IC50 (MDA-MB-231 [1]): 1100 nM
inhibition [2]: Active
inhibition (Quadruplex DNA [3]): Active

SMILES: COc1cc2nc3c4ccc(N5CCN(C)CC5)cc4c4cc(N5CCN(C)CC5)ccc4c3nc2cc1OC
IC50 (MDA-MB-231 [1]): 16800 nM
inhibition [2]: inactive
inhibition (Quadruplex DNA [3]): inactive

SMILES: CN1CCN(c2ccc3c(c2)c2cc(N4CCN(C)CC4)ccc2c2nc4cc(F)ccc4nc32)CC1
IC50 (MDA-MB-231 [1]): 1100 nM
inhibition [2]: Active
inhibition (Quadruplex DNA [3]): Active

Further lines, with some results ahead:

IC50 (MDA-MB-231 [1]): 2700 nM
inhibition [2]: Active
SMILES: Cc1cc2nc3c4ccc(N5CCN(C)CC5)cc4c4cc(N5CCN(C)CC5)ccc4c3nc2cc1C
inhibition (Quadruplex DNA [3]): Active

Tm (Quadruplex DNA [10]): 30 °C
inhibition [2]: Active
inhibition [33]: Active
Activity (Quadruplex DNA [35]): Active
Activity (Quadruplex DNA [36]): Active
Kd (Quadruplex DNA [39]): 600 nM
Activity (Quadruplex DNA [40]): Active
SMILES: COc1ccc2nc3c4ccc(N5CCN(C)CC5)cc4c4cc(N5CCN(C)CC5)ccc4c3nc2c1
Activity (MDA-MB-231 [4]): 20.2%
Activity (MDA-MB-231 [5]): 50%
Activity (CA46 [6]): inactive
Activity (MDA-MB-231 [7]): 4.7%
inhibition (MDA-MB-231 [8]): inactive
Activity (MDA-MB-231 [9]): 16.6%
inhibition (MDA-MB-231 [11]): inactive
Activity (MDA-MB-231 [12]): 54.4%
Activity (MDA-MB-231 [13]): Active
inhibition (MDA-MB-231 [14]): Active
Activity (MDA-MB-231 [15]): 3.1%
Activity (MDA-MB-231 [16]): Active
IC50 [17]: 5.6 µM
Kd (Calf thymus DNA [18]): 12.7 µM
inhibition (MDA-MB-231 [19]): inactive
inhibition in vivo at 2.5 mg/kg (MDA-MB-231 [20]): 52%
Activity (MDA-MB-231 [21]): 38.9%
Activity (MDA-MB-231 [22]): 20.4%
Activity (MDA-MB-231 [23]): Dose-Dependent Effect
Activity [24]: Non-Toxic
Activity [25]: inactive
inhibition (MDA-MB-231 [26]): Active
Activity (MDA-MB-231 [1]): Dose-Dependent Effect
Activity (MDA-MB-231 [27]): 21.7%
Activity (CA46 [28]): Active
Activity (CA46 [29]): inactive
Activity (MDA-MB-231 [30]): 21.2%
Activity (MDA-MB-231 [31]): 24.9%
Kd (Calf thymus DNA [32]): 8.3 µM
inhibition (MDA-MB-231 [34]): inactive
inhibition (Quadruplex DNA [3]): Active
Activity (MDA-MB-231 [37]): 20.3%
inhibition in vivo at 5 mg/kg (MDA-MB-231 [38]): 66%
Activity (MDA-MB-231 [41]): Dose-Dependent Effect

IC50 (MDA-MB-231 [1]): 5400 nM
SMILES: CN1CCN(c2ccc3c(c2)c2cc(N4CCN(C)CC4)ccc2c2nc4cc5ccccc5cc4nc32)CC1
